In BindingDB's records for doi:10.1021/bi200855m (Whitman College, 2011):

Target: T1, 2,6-dichloro-p-hydroquinone 1,2-dioxygenase (Sphingobium chlorophenolicum, UniProt Q9ZBB0)
T1 sequence (Q9ZBB0 whole entry): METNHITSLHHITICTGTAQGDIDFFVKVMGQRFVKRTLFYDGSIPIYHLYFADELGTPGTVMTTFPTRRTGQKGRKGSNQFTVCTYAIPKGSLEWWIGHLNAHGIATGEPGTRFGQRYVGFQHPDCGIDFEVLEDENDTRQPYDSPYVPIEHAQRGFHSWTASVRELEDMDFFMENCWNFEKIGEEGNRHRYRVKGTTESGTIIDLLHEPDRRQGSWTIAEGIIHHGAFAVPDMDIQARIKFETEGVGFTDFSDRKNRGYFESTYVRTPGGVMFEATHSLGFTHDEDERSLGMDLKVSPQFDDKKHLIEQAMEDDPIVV
Test: Inhibition Assay
Experimental: The rate of the enzymatic reaction was determined by measuring product formation by a spectrophotometric assay developed by Xun and co-worker with modification. The assay was performed on a Cary 50 Bio or Cary 5000 UV-visible spectrophotometer (Varian).

Structure (SMILES)	Ki [µM]
Oc1c(Br)cccc1Br	13
Oc1c(Cl)cccc1Cl [2,6-Dichlorophenol]	48
